The subject of one series is Aphis craccivora. In words: Efficacy test against Aphis craccivora (spray on cowpea plants). The format is in vivo. The settings on record: 125 ppm sprayed on cowpea plants infested with nymphs; 25° C., humidity 60%; 4 days after spraying. On the procedure:
The insecticidal rate was calculated by the following formula. Insecticidal rate (%)=(number of dead insects/number of tested insects)×100 Cowpea plants were raised in No. 3 pots, and nymphs of Aphis craccivora were inoculated on the primary leaves. The emulsion (1) was diluted with water so that the concentration of the compound of the present invention was 125 ppm, and the diluent was sprayed on the cowpea plants infested with nymphs of Aphis craccivora. The cowpea plants were placed in a thermostatic chamber with a temperature of 25° C. and a humidity of 60%. […] The test was repeated twice.

The test system of another series is Plutella xylostella. Put plainly: Efficacy test against Plutella xylostella (cabbage leaf immersion). The format is in vivo. The note with it: 125 ppm, cabbage leaf immersed 30 seconds; second instar larvae; 25° C., humidity 60%; 3 days after insect release. As to the method:
The insecticidal rate was calculated by the following formula. Insecticidal rate (%)=(number of dead insects/number of tested insects)×100 The emulsion (1) was diluted with water so that the concentration of the compound of the present invention was 125 ppm. A cabbage leaf was immersed in the diluent for 30 seconds. This cabbage leaf was placed in a petri dish. Five second instar larvae of Plutella xylostella were released therein. The petri dish was placed in a thermostatic chamber with a temperature of 25° C. and a humidity of 60%. […] The test was repeated twice.

Where only a bound is given, the exact number is not on record here.

Take `Br.CCS(=O)(=O)c1cnc(-c2ncccn2)nc1-c1ccc(O)cn1`: the melting point lay in the range of 234 to 239 °C.

`CCS(=O)(=O)c1cnc(-c2ncn(C)n2)nc1-c1ccc(C(F)(F)C(F)(F)C(F)(F)C(F)(F)F)nn1` gave a melting point of 182 to 185 °C.

For `CCS(=O)(=O)c1cnc(N)nc1-c1ccc(C(F)(F)C(F)(F)C(F)(F)C(F)(F)F)nn1`, the melting point lay within 186 to 188 °C.

Consider `CCS(=O)(=O)c1cnc(NC(=O)C(F)(F)F)nc1-c1ccc(OCC(F)(F)C(F)(F)C(F)(F)F)cn1` [1-80], for which the insecticidal rate in the series with Aphis craccivora and with Plutella xylostella was at least 80% each time.

Take `CCS(=O)(=O)c1cnc(-c2ncccn2)nc1-c1ccc(OCC(F)(F)F)nn1` [2-8]: the melting point is 209 to 210 °C.

In turn, `CCS(=O)(=O)c1cnc(O)cc1-c1ccc(OCC(F)(F)C(F)(F)F)cn1` [2-11] registered a melting point of 212 to 214 °C.

Usually melting point stands for the temperature of the solid-liquid transition.

Values taken from patent US11427564B2, “Heteroaryl pyrimidine compound and pest control agent” (Nippon Soda Co., Ltd., priority 2017, dated 2022).
